Key:
[1] = tested on: U87 glioblastoma cells; parameters: method as in PMID 36373493; conditions: protons at 675 keV, dose 9 Gy; cited from earlier work
[2] = tested on: MDA-MB-231 breast cancer cells; assay: MTT cell viability / cytotoxic activity; format: cell-based; conditions: MDA-MB-231, MTT, mean ± SD of two independent experiments
Description: MDA-MB-231 breast cancer cells were purchased from American Type Culture Collection (ATCC, HTB-26). Cells were cultured in DMEM medium supplemented with 10% fetal bovine serum (FBS) and incubated at 37 °C in a humidified 5% CO2 atmosphere. Na[o-COSAN] stock solutions at 1 mM were prepared in DMEM medium without supplements and kept at -20 °C. Cell viability was assessed using the MTT assay following a method similar to the one previously described. Briefly, MDA-MB-231 cells (0.8 − 5 × 10^4 cells/well) were seeded in 96-well plates and left to adhere. After 24 h, cells were incubated with increasing concentrations of Na[o-COSAN] from 1 µM to 1000 µM for 6 and 24 h. After incubation, the medium was removed, and each well was incubated with an MTT solution (0.5 mg/mL in medium) for 3 h at 37 °C. Then, the medium was discarded, and the formazan crystals were solubilized in 200 µL DMSO. Absorbance was measured at 570 nm using an Varioskan TM LUX microplate reader (Thermo Scientific, Waltham, MA, USA). The dose-response curve fit of the absorbance as a function of log10[concentration] was performed using GraphPad Prism software (version 9.5.1) to assess viability and IC50 (concentration at which half the cell population is expected to die) at 6 and 24 h. […]

[3] = tested on: MDA-MB-231 cells; assay: Cellular uptake by nuclear microscopy (STIM, PIXE, EBS), Co as signature; format: cell-based
Description: MDA-MB-231 cells (10^4-10^5 cells) were seeded on 100 nm thick silicon nitride (Si3N4) membranes (Silson Ltd., UK), allowed to adhere, and incubated for 24 h in medium containing Na[o-COSAN] at 50 µM. The culture medium was removed and the monolayer of cells on the membranes was washed with cold PBS, immediately frozen at -80 °C, transferred to a cryostat at -25 °C and allowed to dry overnight for subsequent analysis of [o-COSAN]^− uptake. […] Briefly, a 2.0 MeV focused proton beam of 3 × 4 µm^2 was raster scanned across the target cell on the silicon nitride window, simultaneously delivering images of density by STIM (Scanning Transmission Ion Microscopy), elemental distributions by PIXE (Particle Induced X-ray Emission) and matrix constituents by EBS (Elastic Backscattering Spectroscopy). Spectra recorded and/or extracted from maps in selected regions of the cell allowed Co concentrations to be determined in major cell compartments, such as the cytoplasm and nucleus. At least three cells treated with Na[o-COSAN] at a concentration of 50 µM were analyzed, and Co concentrations were measured using a minimum of five spectra acquired from both the nucleus and cytoplasm regions. The average concentrations for each of these regions were calculated based on the individual spectra. Data acquisition, spectra processing and concentration calculation were performed using the OMDAQ-3 program (Oxford Microbeams Ltd., UK) (http://www.microbeams.co.uk/ Accessed 12-6-2024). Elemental concentrations are expressed as µg/g dry weight.
The uptake of [o-COSAN]^− in single MDA-MB-231 cells was analysed using a combination of nuclear microscopy techniques: STIM, PIXE, and EBS. These techniques allow correlative imaging and quantification of elemental distributions. […] These morphological details were essential for correlating with the elemental distributions obtained from PIXE and assessing localization. […] Therefore, considering the stoichiometry of the carborane cluster [C2B9H11]^−2.in the [o-COSAN]^− molecule, the boron-11 (^11B) content can be estimated. […] This is important information provided by nuclear microscopy. It will be needed for future advanced dosimetry studies, including PBFR.

[4] = tested on: MDA-MB-231 tumor-bearing mice; assay: Biodistribution, boron by ICP-OES in MDA-MB-231 xenograft model; format: in vivo, mice (Balb/cSlc-nu/nu); conditions: 7.5 mgB/kg intravenously
Description: MDA-MB-231 tumor-bearing mice (Balb/cSlc-nu/nu, female, 5–6 weeks old, 14–20 g, Sankyo Labo Service Co., Ltd., Japan) were prepared by injecting subcutaneously (s.c.) a suspension of MDA-MB-231 cells (8.0 × 10^5 cells/mouse) directly into the right thigh. The mice were kept on a regular chow diet and water and maintained under 12 h light/dark cycle in an ambient atmosphere. When the tumor diameter became 5 to 7 mm, the mice were injected via the tail vein with a 200 µL PBS solution of Na[o-COSAN] (7.5 mgB/kg). At 1 h after injection, the mice were lightly anesthetized, and blood samples were collected by cardiac puncture. The mice were then sacrificed by cervical dislocation and dissected. Heart, liver, lung, kidney, spleen, muscle, brain and tumor were excised, washed with 0.9% NaCl solution, and weighed. The excised organs were digested with 1 mL of HNO3 at 90 °C for 1 h, and then the digested samples were diluted with distilled water. After filtering through a hydrophobic filter, boron concentration was measured by an inductively coupled plasma optical emission spectroscopy (ICP-OES, iCAP 7400 Duo, Thermo Fisher Scientific Inc., USA). All animal experiments were conducted in accordance with the Guide for the Care and Use of Laboratory Animals approved by the Animal Use Review Board and Ethical Committee of Tokyo Institute of Technology (Permission number: D2021007).
The biodistribution studies provide important preclinical information regarding the identity of the potential target organs and tissues. Na[o-COSAN] (7.5 mgB/kg) was administrated intravenously to MDA-MB-231 breast cancer xenograft model mice, and boron uptake in the target organs was evaluated at 1 and 4 h post-injection.

[5] = tested on: MDA-MB-231 cells; assay: Clonogenic cell survival after proton irradiation (PBFR, 675 keV); format: cell-based; conditions: for surviving fraction vs control irradiated cells: 24 h incubation, 8 Gy protons, p < 0.05
Description: (§1) Proton irradiation was performed in air using the external microbeam facility at the Van de Graaff accelerator of the CTN/IST. Briefly, a focused 2.0 MeV proton beam of ∼70 × 70 µm^2 was used and rastered scanned over a cell monolayer placed in a cell plate, positioned prependicular to the proton beam path. The raster scan duration and the irradiation time of 10 s ensured irradiation homogeneity. The maximum achievable scan area is in the range of 0.08–0.13 cm^2 (corresponding to 40% of the total area of one well, 0.32 cm^2, in a 96-well plate). A proton beam current in the pA range was used, corresponding to a proton intensity of 2–6 × 10^6 protons/s. Prior to irradiation, part of the culture medium was removed, as described elsewhere. The proton beam energy was tuned to 675 keV (main resonance energy of the proton-boron nuclear reaction) within the cell layer by controlling the air path length and using Mylar^R foils as attenuators. The details of the irradiation geometry are described above and illustrated in Fig. 2.
MDA-MB-231 cells were seeded in each well of a 6 well plate and incubated for 24 h. Cells were incubated with 50 and 100 µM of Na[o-COSAN], for 24 h at 37 °C, and then irradiated with protons, as described in 2.3.1. After irradiation, fresh medium was added and cells were incubated for 7 days in the same conditions. After 7 days of incubation, the medium was aspirated and cells were fixed and stained with Giemsa’s azur eosin methylene blue solution diluted 5% v/v in buffer solution. Finally, colonies were manually counted. Moreover, a CellProfiler pipeline was used to check the size of the different colonies observed in order to assess whether proton irradiation interfered with the capacity of replication of MDA-MB-231 cells.
The efficiency of [o-COSAN]^- was evaluated after irradiation with 8 Gy of protons in MDA-MB-231 cells. The irradiation with protons was carried out assuming that the proton-boron nuclear reaction resonance energy of 675 keV was reached within the cell monolayer.

[6] = tested on: MDA-MB-231 cells; assay: γ-H2AX foci quantification after proton irradiation; format: cell-based
Description: as §1
MDA-MB-231 cells were seeded at a density of 10,000 cells per well in an eight-well chamber slide and allowed to attach overnight. Cells were incubated with 50 and 100 µM of Na[o-COSAN], for 24 h at 37 °C, and then irradiated with protons, as described in 2.4. MDA-MB-231 cells were washed three times with PBS and fixed with 4% formaldehyde in PBS for 15 min. After washing with PBS, cells were permeabilized with Triton X-100 (0.5%) at room temperature for 5 min followed by two washing steps with 1% BSA in PBS. Then, cells were incubated with an anti-γ-H2AX primary antibody (mouse anti-γ-H2AX (ser139), Stressgen) at 2 µg/mL for 1 h. […] Cells were analyzed at under ×64 magnification. Several high-quality 2D images were randomly collected in each slide and analyzed using a modified Speckle Count pipeline from the freeware CellProfiler. At least 200 nuclei were analyzed per experiment per dose. […]
The efficiency of [o-COSAN]^- was evaluated after irradiation with 8 Gy of protons in MDA-MB-231 cells. […]

[7] = parameters: method as in doi:10.1021/cr00010a005, PMID 34944987, PMID 34576098; conditions: cited from earlier work

ferrabis(dicarbollide) [Na[o-FESAN]]
cell viability and survival after proton irradiation [1]: significant loss of cell viability and survival

sodium salt of cobaltabisdicarbollide [Na[o-COSAN]]
IC50 ([2]; 6 h incubation): 245 ± 94 µM | IC50 ([2]; 24 h incubation): 137 µM | Co concentration, nucleus compared to cytoplasm ([3]; 24 h, 50 µM, Fig. 3C): significantly higher concentrations of Co in the nucleus compared to the cytoplasm | 11B content in the nucleus ([3]; estimated from Co concentration and cluster stoichiometry, 24 h, 50 µM): 425 µg/g | 11B atoms in the nuclear volume of a single cell ([3]; estimated from Co concentration, 24 h, 50 µM): approximately 2.3 × 10^9 atoms | average Co concentration in the nucleus ([3]; single MDA-MB-231 cells, 24 h incubation with 50 µM, PIXE, dry weight): 153 µg/g | tumor boron uptake ([4]; 1 and 4 h post-injection): high and maintained after 4 h | boron accumulation in liver and lungs ([4]; 1 h post-injection): significant accumulation of boron | boron accumulation in kidney and spleen ([4]; 1 h post-injection, relative to liver and lungs): less | boron in target organs after 4 h ([4]; 4 h post-injection): considerable clearance of boron | surviving fraction vs control irradiated cells ([5]; 50 µM): significant decrease | surviving fraction vs control irradiated cells ([5]; 100 µM): significant decrease | decrease of average colony size vs cells irradiated with protons in the absence of compound ([5]; 100 µM, irradiated 8 Gy protons, p < 0.001): 40% | decrease of average colony size vs non-irradiated counterparts ([5]; 100 µM, irradiated 8 Gy protons, p < 0.01): 30% | effect on surviving fraction of treated non-irradiated cells ([5]; non-irradiated, vs control conditions): minor cytostatic effects | increase in average number of γ-H2AX foci ([6]; irradiated cells (8 Gy protons) incubated with 50 µM): 55% | increase in average number of γ-H2AX foci ([6]; irradiated cells (8 Gy protons) incubated with 100 µM): 27% | γ-H2AX foci induction without irradiation ([6]; non-irradiated cells): does not induce new γ-H2AX foci | stability [7]: remarkably stable | water solubility [7]: water-soluble

Reference: article PMC11845649, “Unravelling physical and radiobiological effects of proton boron fusion reaction with anionic metallacarboranes ([o-COSAN]^-) in breast cancer cells” (EJNMMI Research, 2025)
